“Also recorded” adds a separate entry of the source.
System: mouse
Experiment: Angiogenesis in mice after subcutaneous injection of hydrogel composite matrix (HE-stained tissue sections)
Format: in vivo
Settings: mice sacrificed 15 days after subcutaneous injection of the hydrogel; rank order against PBS control
Experimental: S-1-P was dissolved in methanol and the solution was poured into a round bottom flask. S-1-P was then dried and spread onto the inner wall of the flask by decompression distillation. PBS was added into the flask followed by rapid freezing using liquid nitrogen. The mixture was then sonicated under room temperature to melt the S-1-P from the inner wall and form micelles. The resulting S-1-P micelles were mixed with chitin hydrogel and bFGF to give a composite matrix. The composite matrix was introduced into the mouse via subcutaneous injection.
The mice were sacrificed 15 days after injecting the hydrogel. The implanted tissues were obtained, fixed, embedded, sectioned, stained, and observed under a 200 times microscope. The sizes and conditions of the blood vessels of the sections were observed. […] The arrows indicate the blood vessels. FIG. 2 is the average numbers of blood vessels of the tissue sections. It is shown that blood vessel number of the sections is bFGF/S-1-P>bFGF>PBS, which is in consistent with results shown in FIG. 1.

Substance: bFGF: protein growth factor (fibroblast growth factor) used alone as the comparison sample
- average numbers of blood vessels of the tissue sections (FIG. 2): larger than the PBS sample; also recorded: bFGF>PBS
